Measurements: ChEMBL document CHEMBL5532756, “Phenylthiazoles with potent & optimum selectivity toward Clostridium difficile” (RSC Med Chem, 2024)
Converted amounts (≈) assume the structure as drawn.

Legend:
Clostridioides difficile [1] = experiment: Antimicrobial activity against Clostridioides difficile ATCC BAA-1870; assay type: functional
Staphylococcus aureus = experiment: Antimicrobial activity against methicillin-resistant Staphylococcus aureus USA300; assay type: functional
Escherichia coli [2] = experiment: Antimicrobial activity against Escherichia coli JW55031 harboring TolC mutant; assay type: functional
Escherichia coli [3] = experiment: Antimicrobial activity against Escherichia coli BW25113; assay type: functional
Candida albicans = experiment: Antimicrobial activity against Candida albicans ATCC 64124; assay type: functional
Neisseria gonorrhoeae = experiment: Antimicrobial activity against Neisseria gonorrhoeae 194; assay type: functional
Clostridioides difficile [4] = experiment: Antibacterial activity against Clostridioides difficile P7; assay type: functional
Clostridioides difficile [5] = experiment: Antibacterial activity against Clostridioides difficile I 13; assay type: functional
Clostridioides difficile [6] = experiment: Antibacterial activity against Clostridioides difficile I 11; assay type: functional
Clostridioides difficile [7] = experiment: Antibacterial activity against Clostridioides difficile ATCC 43598; assay type: functional
Bacteroides fragilis [8] = experiment: Antibacterial activity against Bacteroides fragilis HM-714; assay type: functional
Phocaeicola dorei = experiment: Antibacterial activity against Bacteroides dorei HM-719; assay type: functional
Bacteroides fragilis [9] = experiment: Antibacterial activity against Bacteroides fragilis HM-709; assay type: functional
Bifidobacterium breve [10] = experiment: Antibacterial activity against Bifidobacterium breve HM-411; assay type: functional
Bifidobacterium breve [11] = experiment: Antibacterial activity against Bifidobacterium breve HM-1120; assay type: functional
[12] = Antibacterial activity against Bifidobacterium longum subsp. Longum HM-845; assay type: functional
Lactobacillus crispatus = experiment: Antibacterial activity against Lactobacillus crispatus HM-420; assay type: functional
Lacticaseibacillus casei = experiment: Antibacterial activity against Lactobacillus casei ATCC 334; assay type: functional
Lactobacillus gasseri = experiment: Antibacterial activity against Lactobacillus gasseri HM-400; assay type: functional
[13] = Cytotoxicity against African green monkey Vero cells assessed as cell viability at 0.5 to 64 ug/ml relative to control; assay type: toxicity, cell-based; conditions: chlorocebus sabaeus, at 0.5 to 64 µg/mL, dose 0.5-64 µg/ml, read-out: Activity
HRT-18 cell line = experiment: Cytotoxicity against human HRT-18 cell line assessed as cell viability upto 64 ug/ml; assay type: toxicity, cell-based; conditions: dose < 64 µg/ml

Row | SMILES | MIC (Clostridioides difficile [1]) [µg/mL] | MIC (Staphylococcus aureus) [µg/mL] | MIC (Escherichia coli [2]) [µg/mL] | MIC (Escherichia coli [3]) [µg/mL] | MIC (Candida albicans) [µg/mL] | MIC (Neisseria gonorrhoeae) [µg/mL] | also measured
1 | Cc1nc(-c2ccc3ccccc3c2)sc1-c1ccnc(N2CCC[C@@H]2C(N)=O)n1 | 64 (≈ 154 µM) | > 64 | 64 (≈ 154 µM) | > 64 | > 64 | > 64 | –
2 | Cc1nc(-c2ccc3ccccc3c2)sc1-c1ccnc(NCCO)n1 | 64 (≈ 177 µM) | > 64 | > 64 | > 64 | 1 (≈ 2.76 µM) | > 64 | –
3 | Cc1nc(-c2ccc3ccccc3c2)sc1-c1ccnc(NC[C@H](O)CO)n1 | 64 (≈ 163 µM) | > 64 | > 64 | > 64 | > 64 | > 64 | –
4 | Cc1nc(-c2ccc3ccccc3c2)sc1-c1ccnc(N2CCC[C@H]2CO)n1 | 64 (≈ 159 µM) | > 64 | > 64 | > 64 | > 64 | > 64 | –
5 | Cc1nc(-c2ccc3ccccc3c2)sc1-c1ccnc(N2CCC(N)C2)n1 (stereo unspecified) | 16 (≈ 41.3 µM) | 8 (≈ 20.6 µM) | > 64 | > 64 | 8 (≈ 20.6 µM) | > 64 | –
6 | Cc1nc(-c2ccc3ccccc3c2)sc1-c1ccnc(NCCCN)n1 | 64 (≈ 170 µM) | > 64 | > 64 | > 64 | > 64 | > 64 | –
7 | Cc1nc(-c2ccc3ccccc3c2)sc1-c1ccnc(NCCCO)n1 | 64 (≈ 170 µM) | > 64 | > 64 | > 64 | > 64 | > 64 | –
8 | Cc1nc(-c2ccc3ccccc3c2)sc1-c1ccnc(NC[C@@H](O)CO)n1 | 64 (≈ 163 µM) | > 64 | > 64 | > 64 | > 64 | > 64 | –
9 | Cc1nc(-c2ccc3ccccc3c2)sc1-c1ccnc(NC(CO)CO)n1 | 64 (≈ 163 µM) | > 64 | > 64 | > 64 | > 64 | 64 (≈ 163 µM) | –
10 | Cc1nc(-c2ccc3ccccc3c2)sc1-c1ccnc(N2CC[C@@H](N(C)C)C2)n1 | 64 (≈ 154 µM) | 32 (≈ 77 µM) | > 64 | 64 (≈ 154 µM) | 64 (≈ 154 µM) | > 64 | –
11 | Cc1nc(-c2ccc3ccccc3c2)sc1-c1ccnc(N2CCC[C@@H]2CO)n1 | 64 (≈ 159 µM) | > 64 | > 64 | > 64 | > 64 | 32 (≈ 79.5 µM) | –
12 | Cc1nc(-c2ccc3ccccc3c2)sc1-c1ccnc(N[C@H]2CC[C@H](N)CC2)n1 | 32 (≈ 77 µM) | 8 (≈ 19.3 µM) | > 64 | > 64 | 16 (≈ 38.5 µM) | > 64 | –
13 | Cc1nc(-c2ccc3ccccc3c2)sc1-c1ccnc(NCC(=N)N)n1 | 32 (≈ 85.5 µM) | > 64 | > 64 | > 64 | > 64 | > 64 | –
14 | Cc1nc(-c2ccc3ccccc3c2)sc1-c1ccnc(N2CCC[C@H]2C(N)=O)n1 | 64 (≈ 154 µM) | > 64 | > 64 | > 64 | > 64 | > 64 | –
15 | Cc1nc(-c2ccc3ccccc3c2)sc1-c1ccnc(-c2ccncc2)n1 | > 64 | > 64 | > 64 | > 64 | > 64 | > 64 | –
16 | Cc1nc(-c2ccc3ccccc3c2)sc1-c1ccnc(-c2ccccn2)n1 | 0.03 (≈ 0.0788 µM) | > 64 | > 64 | > 64 | > 64 | > 64 | MIC (Clostridioides difficile [4]): 0.125 µg/mL (≈ 0.329 µM); MIC (Clostridioides difficile [5]): 0.06 µg/mL (≈ 0.158 µM); MIC (Clostridioides difficile [6]): 0.03 µg/mL (≈ 0.0788 µM); MIC (Clostridioides difficile [7]): 0.125 µg/mL (≈ 0.329 µM); MIC (Bacteroides fragilis [8]): > 64 µg/mL; MIC (Phocaeicola dorei): > 64 µg/mL; MIC (Bacteroides fragilis [9]): > 64 µg/mL; MIC (Bifidobacterium breve [10]): > 64 µg/mL; MIC (Bifidobacterium breve [11]): > 64 µg/mL; MIC [12]: > 64 µg/mL; MIC (Lactobacillus crispatus): > 64 µg/mL; MIC (Lacticaseibacillus casei): > 64 µg/mL; MIC (Lactobacillus gasseri): > 64 µg/mL; viability [13]: 100%; Activity (HRT-18 cell line): Non-Toxic
17 | Cc1nc(-c2ccc3ccccc3c2)sc1-c1ccnc(N2CC[C@H](N(C)C)C2)n1 | 32 (≈ 77 µM) | 32 (≈ 77 µM) | > 64 | > 64 | 32 (≈ 77 µM) | > 64 | –
18 | Cc1nc(-c2ccc3ccccc3c2)sc1-c1ccnc(N2CCCCC2CN)n1 (stereo unspecified) | 64 (≈ 154 µM) | > 64 | > 64 | > 64 | 16 (≈ 38.5 µM) | > 64 | –
19 | Cc1nc(-c2ccc3ccccc3c2)sc1-c1ccnc(-c2cccnc2)n1 | > 64 | > 64 | > 64 | > 64 | > 64 | > 64 | –
20 | Cc1nc(-c2ccc3ccccc3c2)sc1-c1ccnc(NCCN(C)C)n1 | 16 (≈ 41.1 µM) | 16 (≈ 41.1 µM) | 16 (≈ 41.1 µM) | > 64 | 16 (≈ 41.1 µM) | > 64 | –
21 | Cc1nc(-c2ccc3ccccc3c2)sc1-c1ccnc(NCC(O)CO)n1 (racemic) | 8 (≈ 20.4 µM) | > 64 | > 64 | > 64 | > 64 | 64 (≈ 163 µM) | –
22 | Cc1nc(-c2ccc3ccccc3c2)sc1-c1ccnc(N[C@@H]2CCCC[C@@H]2N)n1 (relative stereo) | 8 (≈ 19.3 µM) | 4 (≈ 9.63 µM) | 8 (≈ 19.3 µM) | > 64 | 8 (≈ 19.3 µM) | 32 (≈ 77 µM) | –
23 | Cc1nc(-c2ccc3ccccc3c2)sc1-c1ccnc(N[C@@H]2CCCC[C@H]2N)n1 (relative stereo) | 16 (≈ 38.5 µM) | 4 (≈ 9.63 µM) | 8 (≈ 19.3 µM) | > 64 | 8 (≈ 19.3 µM) | 64 (≈ 154 µM) | –
24 | Cc1ncc([N+](=O)[O-])n1CCO [METRONIDAZOLE] | 0.25 (≈ 1.46 µM) | – | – | – | – | – | MIC (Clostridioides difficile [4]): 0.25 µg/mL (≈ 1.46 µM); MIC (Clostridioides difficile [5]): 0.25 µg/mL (≈ 1.46 µM); MIC (Clostridioides difficile [6]): 0.5 µg/mL (≈ 2.92 µM); MIC (Clostridioides difficile [7]): 0.25 µg/mL (≈ 1.46 µM); MIC (Bacteroides fragilis [8]): 1 µg/mL (≈ 5.84 µM); MIC (Phocaeicola dorei): 0.25 µg/mL (≈ 1.46 µM); MIC (Bacteroides fragilis [9]): 1 µg/mL (≈ 5.84 µM); MIC (Bifidobacterium breve [10]): > 8 µg/mL; MIC (Bifidobacterium breve [11]): > 8 µg/mL; MIC [12]: 0.5 µg/mL (≈ 2.92 µM); MIC (Lactobacillus crispatus): > 8 µg/mL; MIC (Lacticaseibacillus casei): > 8 µg/mL; MIC (Lactobacillus gasseri): > 8 µg/mL
25 | CN[C@H](CC(C)C)C(=O)N[C@H]1C(=O)N[C@@H](CC(N)=O)C(=O)N[C@H]2C(=O)N[C@H]3C(=O)N[C@H](C(=O)N[C@H](C(=O)O)c4cc(O)cc(O)c4-c4cc3ccc4O)[C@H](O)c3ccc(c(Cl)c3)Oc3cc2cc(c3O[C@@H]2O[C@H](CO)[C@@H](O)[C@H](O)[C@H]2O[C@H]2C[C@](C)(N)[C@H](O)[C@H](C)O2)Oc2ccc(cc2Cl)[C@H]1O [VANCOMYCIN] | 1 (≈ 0.69 µM) | – | – | – | – | – | MIC (Clostridioides difficile [4]): 0.5 µg/mL (≈ 0.345 µM); MIC (Clostridioides difficile [5]): 0.5 µg/mL (≈ 0.345 µM); MIC (Clostridioides difficile [6]): 0.5 µg/mL (≈ 0.345 µM); MIC (Clostridioides difficile [7]): 0.5 µg/mL (≈ 0.345 µM); MIC (Bacteroides fragilis [8]): 8 µg/mL (≈ 5.52 µM); MIC (Phocaeicola dorei): 8 µg/mL (≈ 5.52 µM); MIC (Bacteroides fragilis [9]): 8 µg/mL (≈ 5.52 µM); MIC (Bifidobacterium breve [10]): 0.25 µg/mL (≈ 0.173 µM); MIC (Bifidobacterium breve [11]): 0.25 µg/mL (≈ 0.173 µM); MIC [12]: 0.125 µg/mL (≈ 0.0863 µM); MIC (Lactobacillus crispatus): 0.5 µg/mL (≈ 0.345 µM); MIC (Lacticaseibacillus casei): > 8 µg/mL; MIC (Lactobacillus gasseri): > 8 µg/mL
